PMC4097363, “Trace amines inhibit insect odorant receptor function through antagonism of the co-receptor subunit” (F1000Research, 2014)
Read-outs that look alike come from different tables or passages of the source.

Key:
Cqui\Orco [1] = target: T1, Cqui\Orco (Culex quinquefasciatus, UniProt Q309I4); experiment: Antagonism of OLC12 activation of Orco in Xenopus oocytes; type: cell-based; details: for inhibition at 100 µM: read-out: inhibition of the OLC12 response
Description: (§1) Follicle cells were removed by treatment with collagenase B (Boehringer Mannheim) for 2 hours at room temperature. Capped cRNA encoding each OR subunit was generated using mMessage mMachine kits (Ambion). For heteromeric ORs, 25 ng of cRNA encoding each OR subunit was injected into Stage V-VI Xenopus oocytes. For expression of Orco homomers, 50 ng of cRNA was injected. Oocytes were incubated at 18°C in Barth's saline (in mM: 88 NaCl, 1 KCl, 2.4 NaHCO 3, 0.3 CaNO 3, 0.41 CaCl 2, 0.82 MgSO 4, 15 HEPES, pH 7.6, and 150µg/ml ceftazidime) for 2–5 days prior to electrophysiological recording.
(§2) Odorant and Orco ligand induced currents were recorded under two-electrode voltage clamp, using an automated parallel electrophysiology system (OpusExpress 6000A, Molecular Devices). Oocytes were perfused with ND96 (in mM: 96 NaCl, 2 KCl, 1 CaCl 2, 1 MgCl 2, 5 HEPES, pH 7.5). Orco ligands were prepared as 50 or 100 mM stock solutions in DMSO and then diluted into ND96 on the day of the experiment. Odorants were prepared as 100 mM stock solutions in DMSO and then diluted into ND96. Unless otherwise noted, applications were for 60 sec at a flow rate of 1.0 ml/min, with extensive washing in ND96 at 4.6 ml/min between applications. Micropipettes were filled with 3 M KCl and had resistances of 0.2–2.0 MΩ. The holding potential was -70 mV. Current responses, filtered (4-pole, Bessel, low pass) at 20 Hz (-3 db) and sampled at 100 Hz, were captured and stored using OpusXpress 1.1 software (Molecular Devices).
(§3) To screen for agonist activity, oocytes were exposed to 30 sec applications of candidate compounds with 5 min washes between applications ( Figure 2A). For the concentration-response protocol ( Table 1), applications were for 20 sec at a flow rate of 1.65 ml/min. To measure antagonist activity at Orco ( Figure 2B, 2C, Figure 3, Figure 4A and Figure 5A), oocytes were exposed to two 60 sec applications of the synthetic Orco agonist OLC12 (2-((4-Ethyl-5-(4-pyridinyl)-4H-1,2,4-triazol-3-yl)sulfanyl)-N-(4-isopropylphenyl)acetamide) with 4 min washes between applications. Oocytes were then exposed to a 90 sec application of antagonist candidate, immediately followed by a 60 sec co-application of antagonist candidate and OLC12. The current response in the presence of antagonist candidate was compared to the mean of the preceding two responses to OLC12 alone and is presented as a percentage.
(§4) Initial analysis of electrophysiological data was done using Clampfit 9.1 software (Molecular Devices). Curve fitting and statistical analyses were done using Prism 5 (Graphpad). Concentration-inhibition data were fit to the equation: I = I max/(1+ (X/IC 50) ^n) where I represents the current response at a given concentration of inhibitor, X; I max is the maximal response in the absence of inhibitor; IC 50 is the concentration of inhibitor present that still allows a half maximal response from odorant; n is the apparent Hill coefficient. Concentration-response data were fit to the equation: I = I max/(1+(EC 50/X) ^n) where I represents the current response at a given concentration of odorant, X; I max is the maximal response; EC 50 is the concentration of agonist yielding a half maximal response; n is the apparent Hill coefficient. Statistical significance (p<0.05) was assessed using a two-tailed unpaired t test, an F test, or a one-way analysis of variance followed by the Dunnett's post-test, as appropriate.

Agam\Orco + Agam\Or65 [2] = target: T2, Agam\Orco + Agam\Or65 (Anopheles gambiae, UniProt Q7QCC7); experiment: Odorant and Orco agonist concentration-response, two-electrode voltage clamp in Xenopus oocytes; type: cell-based
T2 sequence (Q7QCC7 1-478): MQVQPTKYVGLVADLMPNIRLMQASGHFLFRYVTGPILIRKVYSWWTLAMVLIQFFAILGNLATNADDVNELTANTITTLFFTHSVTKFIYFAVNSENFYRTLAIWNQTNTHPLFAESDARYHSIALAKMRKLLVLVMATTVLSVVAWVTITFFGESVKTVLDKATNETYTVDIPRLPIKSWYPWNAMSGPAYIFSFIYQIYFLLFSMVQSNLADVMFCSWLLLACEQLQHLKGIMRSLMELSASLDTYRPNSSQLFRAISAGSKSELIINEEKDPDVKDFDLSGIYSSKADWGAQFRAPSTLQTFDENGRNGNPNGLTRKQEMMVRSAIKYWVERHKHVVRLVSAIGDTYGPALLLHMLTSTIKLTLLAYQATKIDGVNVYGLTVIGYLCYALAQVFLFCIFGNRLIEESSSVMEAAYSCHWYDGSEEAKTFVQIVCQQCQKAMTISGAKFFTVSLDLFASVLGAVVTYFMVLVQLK
Description: as §1, §2, §3, §4

Agam\Orco = target: T3, Agam\Orco (Anopheles gambiae, UniProt Q7QCC7); experiment: Agonist concentration-response, two-electrode voltage clamp in Xenopus oocytes; type: cell-based
T3 sequence (Q7QCC7 1-478): T2 sequence (Q7QCC7 1-478)
Description: as §1, §2, §3, §4

Cqui\Orco [3] = target: T1, Cqui\Orco; experiment: as above; type: cell-based
Description: as §1, §2, §3, §4

Dmel\Orco = target: T4, Dmel\Orco (Drosophila melanogaster, UniProt Q9VNB5); experiment: as above; type: cell-based
T4 sequence (Q9VNB5 1-486): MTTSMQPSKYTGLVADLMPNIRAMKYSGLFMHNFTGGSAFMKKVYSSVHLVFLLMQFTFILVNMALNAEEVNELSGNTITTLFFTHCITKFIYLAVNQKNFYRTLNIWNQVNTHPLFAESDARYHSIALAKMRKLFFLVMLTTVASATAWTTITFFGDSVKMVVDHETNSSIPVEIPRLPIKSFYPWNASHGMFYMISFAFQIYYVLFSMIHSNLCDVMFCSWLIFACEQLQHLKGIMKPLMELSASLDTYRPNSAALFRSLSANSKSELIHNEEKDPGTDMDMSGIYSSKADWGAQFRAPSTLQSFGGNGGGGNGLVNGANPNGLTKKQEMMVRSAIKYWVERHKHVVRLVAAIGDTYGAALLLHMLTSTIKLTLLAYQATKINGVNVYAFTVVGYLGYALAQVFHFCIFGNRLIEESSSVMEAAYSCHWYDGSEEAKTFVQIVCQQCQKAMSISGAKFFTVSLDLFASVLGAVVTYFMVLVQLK
Description: as §1, §2, §3, §4

Dmel\Orco + Dmel\Or35a = target: T5, Dmel\Orco + Dmel\Or35a (Drosophila melanogaster, UniProt Q9VNB5); experiment: as above; type: cell-based
T5 sequence (Q9VNB5 1-486): T4 sequence (Q9VNB5 1-486)
T5 sequence (Q9V3Q2 1-409 partner): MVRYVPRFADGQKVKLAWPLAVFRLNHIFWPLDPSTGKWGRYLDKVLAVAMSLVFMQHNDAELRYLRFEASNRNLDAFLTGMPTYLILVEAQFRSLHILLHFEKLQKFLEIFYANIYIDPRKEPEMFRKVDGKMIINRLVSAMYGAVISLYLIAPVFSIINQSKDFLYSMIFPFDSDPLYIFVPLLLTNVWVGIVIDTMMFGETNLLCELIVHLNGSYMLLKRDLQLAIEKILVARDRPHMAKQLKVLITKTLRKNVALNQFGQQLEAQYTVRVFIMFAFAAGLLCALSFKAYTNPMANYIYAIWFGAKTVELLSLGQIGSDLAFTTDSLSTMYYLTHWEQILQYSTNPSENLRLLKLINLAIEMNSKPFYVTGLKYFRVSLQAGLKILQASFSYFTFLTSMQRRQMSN
Description: as §1, §2, §3, §4

Onub\Orco + Onub\Or6 = Onub\Orco + Onub\Or6 (Ostrinia nubilalis, UniProt D3J5H5); experiment: as above; type: cell-based
Description: as §1, §2, §3, §4

Agam\Orco + Agam\Or65 [4] = experiment: Odorant and Orco agonist concentration-response, two-electrode voltage clamp in Xenopus oocytes; type: cell-based
Description: as §1, §2, §3, §4

Agam\Orco + Agam\Or31 = experiment: Odorant concentration-response, two-electrode voltage clamp in Xenopus oocytes; type: cell-based, Anopheles gambiae
Description: as §1, §2
To screen for agonist activity, oocytes were exposed to 30 sec applications of candidate compounds with 5 min washes between applications ( Figure 2A). For the concentration-response protocol ( Table 1), applications were for 20 sec at a flow rate of 1.65 ml/min. […]
Initial analysis of electrophysiological data was done using Clampfit 9.1 software (Molecular Devices). […] Statistical significance (p<0.05) was assessed using a two-tailed unpaired t test, an F test, or a one-way analysis of variance followed by the Dunnett's post-test, as appropriate.

[5] = Cqui\Orco activated by 30µM OLC12 (~EC5), 100µM of each amine, mean ± SEM, n = 3-10
[6] = normalizing conc. 30µM geranyl acetate

T1 sequence (Q309I4 entry or part of it): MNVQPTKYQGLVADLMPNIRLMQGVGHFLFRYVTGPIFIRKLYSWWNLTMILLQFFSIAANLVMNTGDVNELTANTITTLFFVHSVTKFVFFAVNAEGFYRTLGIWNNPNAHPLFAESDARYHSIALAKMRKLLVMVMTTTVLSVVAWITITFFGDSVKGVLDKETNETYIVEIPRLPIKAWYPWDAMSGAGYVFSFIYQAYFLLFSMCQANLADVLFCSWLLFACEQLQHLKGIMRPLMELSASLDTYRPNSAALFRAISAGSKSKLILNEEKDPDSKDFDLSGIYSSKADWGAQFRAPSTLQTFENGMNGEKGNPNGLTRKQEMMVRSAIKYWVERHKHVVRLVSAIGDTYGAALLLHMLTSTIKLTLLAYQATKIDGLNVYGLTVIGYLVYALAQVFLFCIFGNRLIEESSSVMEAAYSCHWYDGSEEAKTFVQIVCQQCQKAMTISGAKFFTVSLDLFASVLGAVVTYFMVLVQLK
Chain of Onub\Orco + Onub\Or6 (D3J5H9 entry or part of it): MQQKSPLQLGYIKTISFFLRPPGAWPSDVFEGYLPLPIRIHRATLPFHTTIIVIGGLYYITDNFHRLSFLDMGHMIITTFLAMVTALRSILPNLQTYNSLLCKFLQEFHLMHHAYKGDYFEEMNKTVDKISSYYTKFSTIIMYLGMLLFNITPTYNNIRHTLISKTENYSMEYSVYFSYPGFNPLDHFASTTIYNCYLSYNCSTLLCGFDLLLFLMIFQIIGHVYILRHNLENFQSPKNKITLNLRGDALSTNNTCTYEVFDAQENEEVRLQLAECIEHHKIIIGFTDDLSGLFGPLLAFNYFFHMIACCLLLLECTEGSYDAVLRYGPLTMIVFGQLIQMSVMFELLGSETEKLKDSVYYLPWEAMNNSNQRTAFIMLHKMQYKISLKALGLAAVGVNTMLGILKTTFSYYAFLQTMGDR
Chain of Onub\Orco + Onub\Or6 (D3J5H5 entry or part of it): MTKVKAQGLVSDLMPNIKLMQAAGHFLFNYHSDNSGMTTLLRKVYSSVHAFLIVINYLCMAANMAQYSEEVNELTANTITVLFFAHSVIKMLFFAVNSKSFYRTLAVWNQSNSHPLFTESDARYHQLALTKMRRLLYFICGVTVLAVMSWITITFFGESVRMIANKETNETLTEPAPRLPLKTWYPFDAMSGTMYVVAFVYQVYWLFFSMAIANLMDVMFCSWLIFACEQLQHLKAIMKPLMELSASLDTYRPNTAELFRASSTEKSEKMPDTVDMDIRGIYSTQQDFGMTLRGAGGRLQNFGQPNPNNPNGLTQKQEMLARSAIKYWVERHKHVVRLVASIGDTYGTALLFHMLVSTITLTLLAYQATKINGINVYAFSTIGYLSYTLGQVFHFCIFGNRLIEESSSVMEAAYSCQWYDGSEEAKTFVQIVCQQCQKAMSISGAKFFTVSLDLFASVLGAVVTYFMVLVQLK

## CN(C)Cc1c[nH]c2ccccc12 [gramine]
Cqui\Orco [1]; [5]
  inhibition at 100 µM: 30 ± 4%

## NCCc1ccc(O)c(O)c1 [dopamine]
Cqui\Orco [1]
  inhibition of the OLC12 response: inactive

## CCn1c(SCC(=O)Nc2ccc(C(C)C)cc2)nnc1-c1ccncc1 [OLC12, 2-((4-Ethyl-5-(4-pyridinyl)-4H-1,2,4-triazol-3-yl)sulfanyl)-N-(4-isopropylphenyl)acetamide]
Agam\Orco + Agam\Or65 [2]; normalized to 30µM OLC12
  Fit Max: 5.7 ± 0.3
Agam\Orco + Agam\Or65 [2]; normalizing conc. 30µM OLC12
  EC50: 67 ± 6 µM
  n H (apparent Hill coefficient): 2.0 ± 0.3
Agam\Orco; normalized to 30µM OLC12
  Fit Max: 47 ± 2
Agam\Orco; normalizing conc. 30µM OLC12
  n H (apparent Hill coefficient): 2.4 ± 0.3
Agam\Orco; normalizing conc. 30µM OLC12, mean ± SEM
  EC50: 124 ± 9 µM
Cqui\Orco [3]; normalized to 30µM OLC12
  Fit Max: 48 ± 2
Cqui\Orco [3]; normalizing conc. 30µM OLC12
  EC50: 95 ± 6 µM
  n H (apparent Hill coefficient): 2.5 ± 0.3
Dmel\Orco; normalized to 10µM OLC12
  Fit Max: 36 ± 4
Dmel\Orco; normalizing conc. 10µM OLC12
  EC50: 36 ± 4 µM
  n H (apparent Hill coefficient): 3.9 ± 1.9
Dmel\Orco + Dmel\Or35a; normalized to 10µM OLC12
  Fit Max: 4.7 ± 0.4
Dmel\Orco + Dmel\Or35a; normalizing conc. 10µM OLC12
  EC50: 20 ± 5 µM
  n H (apparent Hill coefficient): 1.9 ± 0.8
Onub\Orco + Onub\Or6
  EC50: 100 ± 4 µM
Onub\Orco + Onub\Or6; Onub\Orco + Onub\Or6, normalized to 100µM OLC12
  Fit Max: 2.0 ± 0.1
Onub\Orco + Onub\Or6; Onub\Orco + Onub\Or6, normalizing conc. 100µM OLC12
  n H (apparent Hill coefficient): 2.1 ± 0.2

## NCCc1ccccc1 [phenethylamine]
Cqui\Orco [1]
  IC50: 117 ± 12 µM
Cqui\Orco [1]; Cqui\Orco activated by 30µM OLC12
  less potent than tryptamine (IC50 ratio): 25 fold
Cqui\Orco [1]; [5]
  inhibition at 100 µM: 41 ± 1%

## COc1ccc2[nH]cc(CCNC(C)=O)c2c1 [melatonin]
Cqui\Orco [1]; [5]
  inhibition at 100 µM: 13 ± 1%

## C=CCc1ccc(O)c(OC)c1 [Eugenol, eugenol]
Agam\Orco + Agam\Or65 [4]; normalized to 1µM eugenol
  Fit Max: 1.0 ± 0.03
Agam\Orco + Agam\Or65 [4]; normalizing conc. 1µM eugenol
  EC50: 0.08 ± 0.01 µM
  n H (apparent Hill coefficient): 0.9 ± 0.1

## NCC(O)c1ccc(O)cc1 (centres unmarked) [Octopamine, octopamine]
Cqui\Orco [1]; [5]
  inhibition of the OLC12 response: inactive

## CNC[C@H](O)c1ccc(O)c(O)c1 [epinephrine]
Cqui\Orco [1]
  inhibition at 100 µM: 9 ± 3%

## NC[C@H](O)c1ccc(O)c(O)c1 [norepinephrine]
Cqui\Orco [1]; [5]
  inhibition of the OLC12 response: inactive

## NCCc1c[nH]cn1 [Histamine, histamine]
Cqui\Orco [1]
  inhibition at 100 µM: 16 ± 8%

## NCCc1c[nH]c2ccc(O)cc12 [serotonin]
Cqui\Orco [1]; [5]
  inhibition at 100 µM: 23 ± 3%

## CC(=O)OC/C=C(\C)CCC=C(C)C [Geranyl Acetate, geranyl acetate]
Agam\Orco + Agam\Or31; normalized to 30µM geranyl acetate
  Fit Max: 2.9 ± 0.3
Agam\Orco + Agam\Or31; [6]
  EC50: 65 ± 23 µM
  n H (apparent Hill coefficient): 1.0 ± 0.3
